Source: ChEMBL document CHEMBL1201862, “PubChem BioAssay data set” (2004)
Each block holds one compound with its values, some of them ahead of it. Activity calls are given as the source filed them.

Tests used:
[1] = human group III sPLA2 inhibitors, dose response, biochemical, QFRET, IC50 (AID 743457);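 note: green fluorescence rise as the enzyme cleaves BODIPY PC-A2 in liposomes; potency for inhibition of the enzyme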
[2] = target: T1, Oxysterols receptor LXR-beta (Homo sapiens, UniProt P55055); format: functional, cell-based
T1 sequence (P55055 whole entry): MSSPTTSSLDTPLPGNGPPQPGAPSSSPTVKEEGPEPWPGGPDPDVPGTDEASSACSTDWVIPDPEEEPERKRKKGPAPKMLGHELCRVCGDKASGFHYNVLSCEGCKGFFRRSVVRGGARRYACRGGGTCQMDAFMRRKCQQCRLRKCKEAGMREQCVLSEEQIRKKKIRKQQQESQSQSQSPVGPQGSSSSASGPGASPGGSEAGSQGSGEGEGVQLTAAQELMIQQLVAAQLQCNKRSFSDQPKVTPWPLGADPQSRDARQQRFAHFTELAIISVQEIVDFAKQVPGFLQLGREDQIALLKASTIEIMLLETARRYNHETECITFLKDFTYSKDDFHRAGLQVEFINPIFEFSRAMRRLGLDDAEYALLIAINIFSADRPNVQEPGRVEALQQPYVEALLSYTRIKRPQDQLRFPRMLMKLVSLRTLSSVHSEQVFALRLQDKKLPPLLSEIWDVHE

[3] = target: T2, Mannose-6-phosphate isomerase (Homo sapiens, UniProt P34949); test: inhibitors of human PMI, primary screen, biochemical, fluorescence intensity, coupled assay (AID 1209)
T2 sequence (P34949 whole entry): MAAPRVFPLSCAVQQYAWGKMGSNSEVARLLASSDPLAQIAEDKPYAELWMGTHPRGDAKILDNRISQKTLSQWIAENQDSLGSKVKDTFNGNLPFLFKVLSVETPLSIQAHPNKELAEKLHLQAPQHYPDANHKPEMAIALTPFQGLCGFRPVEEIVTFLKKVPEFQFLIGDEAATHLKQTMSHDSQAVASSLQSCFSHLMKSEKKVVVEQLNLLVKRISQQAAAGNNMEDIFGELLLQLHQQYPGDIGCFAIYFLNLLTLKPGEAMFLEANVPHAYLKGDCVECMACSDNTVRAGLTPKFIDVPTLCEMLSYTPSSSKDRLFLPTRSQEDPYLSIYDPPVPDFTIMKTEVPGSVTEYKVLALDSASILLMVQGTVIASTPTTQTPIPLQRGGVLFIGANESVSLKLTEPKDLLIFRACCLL

[4] = target: T2, Mannose-6-phosphate isomerase; test: human PMI inhibitors, high substrate, primary screen, biochemical, fluorescence intensity, high mannose 6-phosphate (AID 1220)
[5] = target: T3, Histone-lysine N-methyltransferase NSD2 (Homo sapiens, UniProt O96028); format: biochemical
T3 sequence (O96028 whole entry): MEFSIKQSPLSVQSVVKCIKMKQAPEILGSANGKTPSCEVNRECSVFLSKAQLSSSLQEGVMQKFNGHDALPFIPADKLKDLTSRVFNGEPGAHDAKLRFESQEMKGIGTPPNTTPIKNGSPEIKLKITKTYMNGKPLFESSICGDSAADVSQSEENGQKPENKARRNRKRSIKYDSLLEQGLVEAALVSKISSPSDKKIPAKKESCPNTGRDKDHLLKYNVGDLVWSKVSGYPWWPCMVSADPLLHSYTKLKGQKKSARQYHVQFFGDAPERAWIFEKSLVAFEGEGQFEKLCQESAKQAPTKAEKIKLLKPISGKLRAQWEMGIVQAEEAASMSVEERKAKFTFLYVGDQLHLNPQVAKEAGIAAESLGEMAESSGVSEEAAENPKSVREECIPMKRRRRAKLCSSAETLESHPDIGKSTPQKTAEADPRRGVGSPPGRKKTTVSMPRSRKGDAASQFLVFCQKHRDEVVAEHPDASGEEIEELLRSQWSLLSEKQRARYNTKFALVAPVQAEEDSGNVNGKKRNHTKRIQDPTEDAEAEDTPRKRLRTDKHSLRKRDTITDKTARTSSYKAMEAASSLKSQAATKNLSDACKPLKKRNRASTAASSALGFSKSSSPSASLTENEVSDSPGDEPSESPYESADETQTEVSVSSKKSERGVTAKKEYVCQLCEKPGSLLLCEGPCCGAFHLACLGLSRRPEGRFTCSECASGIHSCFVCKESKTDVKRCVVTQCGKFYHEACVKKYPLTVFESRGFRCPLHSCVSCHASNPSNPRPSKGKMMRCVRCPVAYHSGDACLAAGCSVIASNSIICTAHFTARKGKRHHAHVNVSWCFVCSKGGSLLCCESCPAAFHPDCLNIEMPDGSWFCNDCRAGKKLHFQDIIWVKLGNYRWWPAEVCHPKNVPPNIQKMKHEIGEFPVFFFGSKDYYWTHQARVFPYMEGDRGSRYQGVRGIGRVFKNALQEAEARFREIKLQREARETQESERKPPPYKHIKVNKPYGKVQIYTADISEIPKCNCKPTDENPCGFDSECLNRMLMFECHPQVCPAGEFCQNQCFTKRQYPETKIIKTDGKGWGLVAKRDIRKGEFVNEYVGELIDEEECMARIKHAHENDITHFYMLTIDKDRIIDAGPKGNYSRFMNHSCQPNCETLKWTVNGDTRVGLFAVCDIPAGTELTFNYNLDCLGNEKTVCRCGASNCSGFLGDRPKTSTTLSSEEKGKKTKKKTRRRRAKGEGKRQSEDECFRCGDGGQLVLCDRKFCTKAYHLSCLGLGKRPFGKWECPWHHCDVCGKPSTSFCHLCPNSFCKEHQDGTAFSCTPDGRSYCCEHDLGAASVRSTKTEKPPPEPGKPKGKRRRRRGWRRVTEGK

[6] = HEK293T cytotoxicity, dose response, cytotoxicity control for miR-122 modulator project, cell-based, inhibitor set, cherry-pick, set 2 (AID 720697); format: functional
[7] = HepG2 cell cytotoxicity, dose response, cytotoxicity control, ATP luminescence, cherry-pick, activator set 2 (AID 1053143); format: functional, cell-based
[8] = HepG2 cell cytotoxicity, dose response, cytotoxicity control, cherry-picked samples (AID 1159577); format: functional, cell-based
[9] = P. falciparum Dd2 growth inhibitors, dose response, SYBR Green, cherry-picked samples (AID 1159567); format: functional, cell-based
[10] = target: T1, Oxysterols receptor LXR-beta; format: functional, cell-based; remark: listed apart in the source

IC50 [1]: > 122 µM (inactive)
Structure (SMILES): O=C(NNC(=S)Nc1ccc(Br)cc1)c1cccnc1

EC50 [2]: > 67.5 µM (inactive)
Structure (SMILES): COC(=O)c1sc2nc3c(cc2c1N)CCCC3

IC50 [3]: 5.12 µM (active)
IC50 [4]: 7.13 µM (active)
AC50 [5]: 4.96 µM (active)
Structure (SMILES): CN(Cc1c(O)ccc2c1oc(=O)c1ccccc12)C1CCCCC1

Structure (SMILES): COc1ccc(CC(NC(C)=O)C(=O)N2CCN(C(=O)N(C(C)C)C(C)C)CC2)cc1 (stereo not drawn)
AC50 [6]: 0.834 µM (active)

Structure (SMILES): CC(=O)CC1(O)C(=O)N(Cc2ccccc2)c2ccccc21 (stereo not drawn)
AC50 [7]: > 52 µM (inactive)

Structure (SMILES): CN(C)CC(=O)N[C@@H]1C[C@@H]2O[C@@H](CO)CC[C@@H]2O[C@@H]1CCc1ccc(C2=CCCCC2)cc1
AC50 [8]: 27.7 µM (active)
AC50 [9]: 6.13 µM (active)

AC50 [5]: > 20 µM (inactive)
Structure (SMILES): CNCCCC12CCC(c3ccccc31)c1ccccc12 [MAPROTILINE]

Structure (SMILES): C/C(=N/N=C(/C)c1cccs1)c1cccs1
EC50 [10]: > 67.6 µM (inactive)
EC50 (cells): > 67.6 µM (inactive)

Structure (SMILES): COCCN(C[C@@H]1[C@@H](c2ccccc2)[C@H](CO)N1C(=O)C1CC1)C(C)=O
AC50 [6]: 0.502 µM (active)
